Source: patent US9125879B2, “Composition containing a quinoa extract for dermatological use” (LABORATOIRES EXPANSCIENCE, priority 2006, dated 2015)

Columns and labels:
Type in all cases: cell-based
γ-2 chain of laminin 5 = assay: Genic expression of the γ-2 chain of laminin 5 in keratinocytes (RT-PCR); settings: 5 ng/ml, 48 hours
Description: (§1) a. Study of the Effect of Quinoa Peptides on the Expression of Genes Coding for Laminin 5 and PPM-9 by RT-PCR • Principle of real time quantitative PCR: cf. Example 4 • Procedure:
(§2) On day 0, the keratinocytes were sown in 24-well plates in a KGM-2 medium. On D1, the cells were treated with TGFβ1 at 5 ng/mL or quinoa peptides with 0.05 and 0.1% DM for 48 hours. At the end of the treatment of the cells, the total RNAs were extracted (RNeasy MiniKit extraction kit; Qiagen) and then quantitatively assayed in minichips by means of the Experion system (Experion RNA StdSens kit; Biorad). The total RNAs were then backtranscribed into cDNA (iScript cDNA Synthesis kit; Biorad). Finally, the neo-synthesized cDNAs relative to the gene of interest (genes coding for the 3 chains making up laminin 5: […] and MMP-9) or to the reference genes (HPRT, GAPDH, YWHEZ, beta actin=normalizers) were selectively amplified by real time PCR (iQ5, Biorad) by using specific primers of the target sequences.

β-3 chain of laminin 5 = assay: Genic expression of the β-3 chain of laminin 5 in keratinocytes (RT-PCR); settings: 5 ng/ml, 48 hours
Description: as §1, §2

MMP-9 [1] = assay: Genic expression of MMP-9 in keratinocytes (RT-PCR); settings: 5 ng/ml, 48 hours
Description: as §1, §2

MMP-9 [2] = assay: Dosage of MMP-9 protein secreted by keratinocytes (ELISA); settings: 5 ng/ml, supernatants of keratinocytes
Description: d. Dosage of MMP-9 Secreted by Keratinocytes.
The keratinocytes were sown in 24-well plates; after 24 hours in incubation at 37° C., with 5% CO2, the cells were treated with quinoa peptides with 0.05% and 0.01% DM. TGFβ tested at 5 ng/mL was used as a positive control. After 48 and 72 hours of treatment, the amount of MMP-9 secreted by the cells was assayed in the culture supernatant by means of an ELISA kit (R&D Systems), according to the procedure recommended by the supplier. In parallel, the amount of living cells per well was determined by a colorimetric neutral red test: optical density OD, proportional to the amount of living cells, is read at 570 nm.
The amount of MMP-9 is expressed in living cells: (ng/mL)/OD570 (optical density at 570 nm) MTT.

collagen I = assay: Genic expression of collagen I in fibroblasts (real time quantitative PCR); settings: 5 ng/mL, 48 hours
Text: (§3) b. Study of the Effect of Quinoa Peptides on the Expression of Genes Coding for Collagen I and Collagen III and Elastin by RT-PCR
(§4) b.1. Principle of Real Time Quantitative PCR:
(§5) Real time quantitative PCR or QRT-PCR (Quantitative Real Time Polymerase Chain Reaction) is a molecular biology method, which allows specific and quantitative measurement of the expression of genes of interest by amplification. Quantification is based on tracking the amplification of genes in real time by using as a reporter system, SYBR Green technology: a molecule with fluorescent properties which is inserted inside the double strand DNA. PCR takes place in a succession of temperature cycles according to 3 steps: • Denaturation: separation of 2 DNA strands. • Hybridization: recognition of a DNA sequence corresponding to a target gene by means of specific primers. • Extension: of the sequence of interest by a action of a polymerase.
(§6) DNA amounts are compared in the exponential part, moment during which the increase in the DNA amount is proportional to the initial matrix amount.
(§7) On D0, the fibroblasts were sown on 6-well plates in RPMI medium added with 10% SVF. On D1, the fibroblasts were treated with TGF β1 at 5 ng/mL or the quinoa oil concentrate with 0.005% and 0.01% DM in RPMI medium with 1% SVF for 48 hours. At the end of the treatment of the cells, the total […] were extracted (extraction kit RNeasy kit MiniKit; Qiagen) and then assayed quantitatively in minichips by means of an Experion system (Experion RNA StdSens kit; Biorad). Total RNAs are then back-transcribed into cDNA (iScript cDNA Synthesis kit; Biorad). Finally the neo-synthesized cDNAs relative to the genes of interest (collagen I, collagen III, elastin) or to reference genes (HPRT, GAPDH, YWHAZ, beta actin=normalizers) were selectively amplified with real time PCR (iQ5, Biorad) by using specific primers of the target sequences.
(§8) The expression of the reference genes is analyzed in the same samples as those for which expression of the genes of interest is evaluated in order to normalize the results and to make sure that they are actually the results of the effect of the treatment by quinoa oil concentrate.
(§9) b.3. Analysis of the Results:
(§10) The variation in the number of copies of the genes of interest during the treatment is then calculated according to the following formula: DDCt=control DCt−treatment DCt.
(§11) Finally, the relative amount or the expression level of the genes of interest, normalized by the expression level of the reference genes in the untreated and treated samples is obtained by the formula: QR=2DDCt

α-3 chain of laminin 5 = assay: Genic expression of the α-3 chain of laminin 5 in keratinocytes (RT-PCR); settings: 5 ng/ml, 48 hours
Description: as §1, §2

KGF = assay: Dosage of KGF secreted by fibroblasts (ELISA); settings: for % A (increase) / Amount of KGF: 5 ng/ml, supernatants of fibroblasts
Description: e. Dosage of KGF Secreted by Fibroblasts
The fibroblasts were sown in a 24-well plate in RPMI at 1% SVF; after 24 hours of incubation at 37° C., with […], the cells were treated with quinoa peptides with 0.05% and 0.01% DM. IL1α (Sigma) at 100 ng/mL was used as a positive control. After 24 and 48 hours of treatment, the amount of KGF salted out by the fibroblasts was assayed with an ELISA kit (R&D Systems), according to the procedure recommended by the supplier. In parallel, the amount of living cells per well was determined by a colorimetric neutral red test: optical density OD, proportional to the amount of living cells, is read at 570 nm. In parallel, the amount of living cells per well was determined by an MTT colorimetric test: optical density OD, proportional to the amount of living cells, is read at 570 nm.
The amount of KGF is expressed by the living cells: pg/mL/OD570 MTT.

elastin = assay: Genic expression of elastin in fibroblasts (real time quantitative PCR); settings: 5 ng/mL, 48 hours
Text: as §3, §4, §5, §6, §7, §8, §9, §10, §11

collagen III = assay: Genic expression of collagen III in fibroblasts (real time quantitative PCR); settings: 5 ng/mL, 48 hours
Text: as §3, §4, §5, §6, §7, §8, §9, §10, §11

keratinocytes = assay: Proliferation of keratinocytes by the MTT method
Description: c. Study of the Proliferation of Keratinocytes by the MTT Method
On D0, the keratinocytes are sown in a KGM2 medium day1, the cells are treated with trans-retinoic acid (ATRA) at 1 μM or quinoa peptides with 0.05% and 0.1% DM for 24 and 48 hours. At the end of the treatment, cell viability is quantified by an MTT test: after 3 hours of contact with MTT, the formed formazan crystals are solubilized by DMSO and the optical density, proportional to the amount of metabolically active cells therefore live cells, is read at 570 nm against the blank (wells without any cells).

Molecule: TGFβ: growth factor used as a positive control at 5 ng/mL
- % of induction (γ-2 chain of laminin 5): 1676%
- Mean dCt (γ-2 chain of laminin 5): −1.925
- QR (γ-2 chain of laminin 5): 17.76
- ddCt (γ-2 chain of laminin 5): 4.15
- QR (γ-2 chain of laminin 5; listed as TGF-β1): ~17
- % of induction (β-3 chain of laminin 5): 420%
- Mean dCt (β-3 chain of laminin 5): −0.944
- QR (β-3 chain of laminin 5): 5.20
- ddCt (β-3 chain of laminin 5): 2.38
- QR (β-3 chain of laminin 5; listed as TGF-β1): ~5
- % of induction (MMP-9 [1]): 807%
- Mean dCt (MMP-9 [1]): 3.07
- QR (MMP-9 [1]): 8
- ddCt (MMP-9 [1]): 3.01
- % A (increase) (MMP-9 [2]; treatment 48 h): 372%
- Amount of MMP-9 (MMP-9 [2]; treatment 48 h): 11.604 ng/mL/OD neutral red
- % A (increase) (MMP-9 [2]; treatment 72 h): 568%
- Amount of MMP-9 (MMP-9 [2]; treatment 72 h): 14.746 ng/mL/OD neutral red
- % of induction (collagen I): 87%
- Mean dCt (collagen I): −3.2
- QR (collagen I): 1.87
- ddCt (collagen I): 0.9
- % of induction (α-3 chain of laminin 5): 1193%
- Mean dCt (α-3 chain of laminin 5): −0.944
- QR (α-3 chain of laminin 5): 12.93
- ddCt (α-3 chain of laminin 5): 3.69
- QR (α-3 chain of laminin 5; listed as TGF-β1): ~12
- % A (increase) (KGF; treatment 24 h): 431%
- Amount of KGF (KGF; treatment 24 h): 147.886 pg/mL/OD neutral red
- % A (increase) (KGF; treatment 48 h): 336%
- Amount of KGF (KGF; treatment 48 h): 352.387 pg/mL/OD neutral red
- % of induction (elastin): 435%
- QR (elastin): 5.35
- dCt (elastin): 2.16
- ddCt (elastin): 2.4
- % of induction (collagen III): 427%
- Mean dCt (collagen III): 2.51
- QR (collagen III): 5.27
- ddCt (collagen III): 2.4

Molecule: CC1=C(/C=C/C(C)=C/C=C/C(C)=C/C(=O)O)C(C)(C)CCC1 [ATRA, trans-retinoic acid]
- Mean OD570 (MTT) (keratinocytes; 1 μM): 1.361
- % of proliferation (keratinocytes; 1 μM, negative control = 100): 136%
- proliferation rate induced (keratinocytes; positive control): +36%

B1: IL1α: IL1α (Sigma) at 100 ng/mL used as a positive control (protein, UniProt P01583 113-271, looked up)
Interleukin-1 alpha: SAPFSFLSNVKYNFMRIIKYEFILNDALNQSIIRANDQYLTAAALHNLDEAVKFDMGAYKSSKDDAKITVILRISKTQLYVTAQDEDQPVLLKEMPEIPKTITGSETNLLFFWETHGTKNYFTSVAHPNLFIATKQDYWVCLAGGPPSITDFQILENQA
- synthesis of KGF by fibroblasts (KGF; positive control, 100 ng/mL): increased
